Test results: ChEMBL document CHEMBL1201862, “PubChem BioAssay data set” (2004)
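Interpolation was linear, between the two tested concentrations surrounding the appropriate level; five concentrations were tested over 48 hours in 96-well plates. GI50 is the concentration that inhibits growth by half.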 Activity calls are given as the source filed them. Rule as the data show it: active = GI50 up to about 1.1 µM and inactive = higher.

Legend:
Experiment in all cases: NCI anticancer screen, dose series, 48 h
[1] = system: KM12
[2] = system: MDA-N
[3] = system: SF-268
[4] = system: LOX IMVI
[5] = system: M14
[6] = system: T47D
[7] = system: SK-MEL-2
[8] = system: HOP-92
[9] = system: SK-OV-3
[10] = system: DU-145
[11] = system: COLO 205
[12] = system: MDA-MB-435
[13] = system: UO-31
[14] = system: HCC 2998
[15] = system: NCI/ADR-RES
[16] = system: SF-539
[17] = system: PC-3
[18] = system: SW-620
[19] = system: SK-MEL-5

Measured: GI50

Cc1c2c(C(N)=O)nccc2c(C)c2c1c1ccccc1n2Cc1ccccc1
inactive: [1] 21.6 µM | [2] 29 µM | [3] 28.4 µM | [4] 4.41 µM | [5] 56.2 µM | [6] 29.2 µM | [7] 18.8 µM | [8] 4.93 µM | [9] 22.9 µM | [10] 27.7 µM | [11] > 10 µM | [12] 33.9 µM | [13] 16.4 µM | [14] 26.4 µM | [15] 9.75 µM | [16] 19.1 µM | [17] 13 µM | [18] 17.2 µM | [19] 34.8 µM

CCOC(=O)Cc1nc2c(O)ncnc2n1C1OC(COC(C)=O)C(OC(C)=O)C1OC(C)=O (centres undefined)
inactive: [1] > 100 µM | [2] > 100 µM | [3] > 100 µM | [4] > 100 µM | [5] > 100 µM | [6] > 100 µM | [7] > 100 µM | [8] > 100 µM | [9] > 100 µM | [10] > 100 µM | [11] > 100 µM | [12] > 100 µM | [13] > 100 µM | [14] > 100 µM | [15] > 100 µM | [16] > 100 µM | [17] > 100 µM | [18] > 100 µM | [19] > 100 µM

Cc1ccc([N+](=O)[O-])c2c(NCCCN(C)C)ccnc12
inactive: [1] 69.8 µM | [2] 33.5 µM | [3] > 95.9 µM | [4] 44.2 µM | [5] > 59.2 µM | [6] > 100 µM | [7] 36.6 µM | [8] 56.9 µM | [10] > 100 µM | [11] 15 µM | [12] 21.6 µM | [13] > 100 µM | [14] 20.3 µM | [15] 66.2 µM | [16] 27.3 µM | [17] 33.6 µM | [18] 30.7 µM | [19] 29.6 µM

COc1cc(/C=C/C(=N\NC(=S)NN)c2sc(NNC(C)=O)nc2C)ccc1O
inactive: [1] 66.2 µM | [2] > 100 µM | [3] > 100 µM | [4] > 100 µM | [5] > 100 µM | [6] > 100 µM | [7] > 100 µM | [8] > 100 µM | [9] > 100 µM | [10] > 100 µM | [11] > 100 µM | [12] > 100 µM | [13] > 100 µM | [14] > 100 µM | [15] > 100 µM | [16] > 100 µM | [17] > 100 µM | [18] > 100 µM | [19] > 100 µM

Cc1c(OCc2cccc3ccccc23)ccc2c(O)cc(=S)oc12
inactive: [1] 29.2 µM | [2] 43.4 µM | [3] 34.1 µM | [4] 22 µM | [5] 34.8 µM | [6] 35.2 µM | [7] 19.4 µM | [8] 27.1 µM | [10] 36.2 µM | [11] 31.4 µM | [12] 30.1 µM | [13] 33.6 µM | [14] 31.4 µM | [15] 38.2 µM | [16] 26.9 µM | [17] 35.2 µM | [18] 39.2 µM | [19] 18.5 µM

COC(=O)[C@@H]1Cc2cc(O)c(O)cc2C2(CCN(C)CC2)O1
inactive: [1] > 10 µM | [2] > 10 µM | [3] > 10 µM | [4] > 10 µM | [5] > 10 µM | [6] > 10 µM | [7] > 10 µM | [8] > 10 µM | [9] > 10 µM | [10] > 10 µM | [11] > 10 µM | [12] > 10 µM | [14] > 10 µM | [15] > 10 µM | [16] > 10 µM | [17] > 10 µM | [18] > 10 µM | [19] > 10 µM

C[C@]12CC[C@H](O)CC1=CC[C@@H]1[C@@H]2CC[C@]2(C)c3nc(Cl)ccc3C[C@@H]12
inactive: [1] 22.2 µM | [2] 12.2 µM | [3] 26.7 µM | [4] 57.1 µM | [5] > 59.4 µM | [6] > 63.4 µM | [7] > 100 µM | [8] > 100 µM | [9] 42.7 µM | [10] > 100 µM | [11] > 100 µM | [12] 6.76 µM | [13] 7.52 µM | [14] > 58.1 µM | [15] 29.5 µM | [16] 14.9 µM | [17] 74.3 µM | [18] > 42.3 µM | [19] > 46.2 µM

CC(=O)N1c2ccccc2C(C)(C)OC1C(Cl)(Cl)Cl (centres undefined)
inactive: [1] 30.1 µM | [2] 26.1 µM | [3] 37.3 µM | [5] 34 µM | [6] 84.7 µM | [7] 45.1 µM | [8] 21 µM | [9] 37.8 µM | [10] 42.1 µM | [11] 30.3 µM | [12] 25.5 µM | [13] 58.2 µM | [14] 23.2 µM | [15] 31.7 µM | [16] 44.5 µM | [17] 31.8 µM | [18] 34 µM | [19] 23.8 µM

Cc1nc2cccc(F)c2c(=O)n1-c1nnc(C(F)(F)F)s1
inactive: [1] > 10 µM | [2] > 10 µM | [3] > 10 µM | [4] > 10 µM | [5] > 10 µM | [6] > 10 µM | [7] > 10 µM | [8] > 10 µM | [9] > 10 µM | [10] > 10 µM | [11] > 10 µM | [12] > 10 µM | [13] > 10 µM | [14] > 10 µM | [15] > 10 µM | [16] > 10 µM | [17] > 10 µM | [18] > 10 µM | [19] > 10 µM

NNC(=O)CNC(=O)CSc1nnc(COc2ccc(Cl)cc2)n1-c1ccccc1
inactive: [1] > 100 µM | [2] > 100 µM | [3] > 100 µM | [4] > 100 µM | [5] > 100 µM | [6] > 100 µM | [7] > 100 µM | [8] > 100 µM | [9] > 100 µM | [10] > 100 µM | [11] > 100 µM | [12] > 100 µM | [13] > 100 µM | [14] > 100 µM | [15] > 100 µM | [16] > 100 µM | [17] > 100 µM | [18] > 100 µM

C=C(CN(CC)CC)C1(c2ccccc2)CC2(CCCC2)C(=O)O1 (centres undefined)
inactive: [1] > 100 µM | [2] > 100 µM | [3] > 100 µM | [4] > 100 µM | [5] 45.5 µM | [6] > 100 µM | [7] > 100 µM | [8] 28.6 µM | [9] > 100 µM | [10] > 100 µM | [11] 55 µM | [12] > 100 µM | [13] > 100 µM | [14] > 100 µM | [15] 11.1 µM | [16] > 100 µM | [17] 67 µM | [18] > 100 µM | [19] 68.4 µM
